Results from patent US20190031618A1, “BENZIMIDAZOLE DERIVATIVES USEFUL AS CB-1 INVERSE AGONISTS” (Janssen Pharmaceutica NV, priority 2015, published 2019).
Where two headings read alike, the source gives them in different places.

Key:
[1] = Mouse Fast PK/BBB: plasma and brain concentration; format: in vivo, Male C57bl/6j mice; settings: mice; for concentration at 1 h: male, C57bl/6j, mouse, brain, read-out: Brain Mean Conc. ± Std. Dev; for Brain Mean Conc. ± Std. Dev: 1 hr
[2] = biological target: Human CB2R (Cannabinoid receptor 2) (Homo sapiens, UniProt P34972); test: CB-2 in vitro cAMP (HTRF) assay; format: cell-based; settings: HEK cells, cAMP HTRF, 250 nM forskolin; mean where tested more than once; read-out: CB2 HEK_cAMP EC50
Sequence of Human CB2R (Cannabinoid receptor 2) (P34972 whole entry): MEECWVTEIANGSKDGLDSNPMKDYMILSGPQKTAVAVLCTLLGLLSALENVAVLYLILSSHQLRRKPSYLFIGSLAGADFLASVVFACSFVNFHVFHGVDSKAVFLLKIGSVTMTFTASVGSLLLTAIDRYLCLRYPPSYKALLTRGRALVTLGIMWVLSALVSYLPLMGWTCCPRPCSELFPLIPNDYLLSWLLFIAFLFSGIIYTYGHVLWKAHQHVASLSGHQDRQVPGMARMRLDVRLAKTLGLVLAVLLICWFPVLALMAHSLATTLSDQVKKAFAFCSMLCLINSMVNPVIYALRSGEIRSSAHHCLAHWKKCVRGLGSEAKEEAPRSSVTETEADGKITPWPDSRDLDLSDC
Procedure, shortened: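 HEK-293 cells stably expressing receptor, plated overnight at 4E5 cells/mL, tested with 1/3 serial dilutions of compound in HBSS/HEPES/BSA buffer with 0.5 mM IBMX and forskolin (diluted to 1.5 μM in buffer). cAMP measured by competitive HTRF immunoassay (d2-cAMP, cryptate anti-cAMP), signal inversely proportional to cAMP.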

[3] = Mouse Fast PK/BBB: plasma and brain concentration; format: in vivo, Male C57bl/6j mice; settings: mice; for concentration at 4 h / concentration at 1 h: male, C57bl/6j, mouse; for concentration at 4 h / Brain Mean Conc. ± Std. Dev: 4 hr
Protocol: Male Sprague Dawley rats are ordered from Charles River (225-250 gm upon arrival). They are fed standard chow diet (Purina 5001) and housed 2 per cage. Male C57bl/6j mice are ordered from Charles River at 22-25 g and housed 3 per cage. They are fed standard chow (Purina 5001). All animals are housed in a temperature-controlled room with 12-hour light/dark cycle. Animals are given food and water ad libitum, except as noted.
Test compounds are administered by oral gavage (5 ml kg^−1 or 10 ml kg^−1).
Male C57bl/6j mice were dosed with test compounds at 20 or 30 mg/kg. Plasma was collected via retro-orbital bleeding at 1 hr and 4 hrs after dosing. Whole brain without cerebellum was collected at 4 hrs after dosing. Wet brain weight was recorded before freezing. Brains were homogenized in saline and sent for analysis for determination of concentration of test compound.
Representative compounds of formula (I) of the present invention were tested according to the procedure described above, with results as listed in Table BIO-2 below.

[4] = brain (whole brain without cerebellum), dose 20 mg/kg oral, read-out: Brain Mean Conc. ± Std. Dev
[5] = plasma, dose 20 mg/kg oral, read-out: Plasma Mean Conc. ± Std. Dev
[6] = brain (whole brain without cerebellum), dose 30 mg/kg oral, read-out: Brain Mean Conc. ± Std. Dev
[7] = plasma, dose 30 mg/kg oral, read-out: Plasma Mean Conc. ± Std. Dev

SMILES | concentration at 1 h ([1]; dose 20 mg/kg oral) [ng/mL] | EC50 [2] [µM] | concentration at 4 h [3, 4] [ng/mL] | concentration at 1 h [3, 5] [ng/mL] | concentration at 4 h [3, 5] [ng/mL] | Brain Mean Conc. ± Std. Dev ([1]; dose 20 mg/kg oral) | Brain Mean Conc. ± Std. Dev ([3]; dose 20 mg/kg oral) | concentration at 1 h ([1]; dose 30 mg/kg oral) [ng/mL] | concentration at 4 h [3, 6] [ng/mL] | concentration at 1 h [3, 7] [ng/mL] | concentration at 4 h [3, 7] [ng/mL] | Brain Mean Conc. ± Std. Dev ([1]; dose 30 mg/kg oral) | Brain Mean Conc. ± Std. Dev ([3]; dose 30 mg/kg oral)
O=S(=O)(N1CCC(Cn2c(C3CC3)nc3ccc(C(c4ccc(Cl)cc4)c4ccc(Cl)cc4)cc32)CC1)C(F)(F)F [Example 316] | 22.9 ± 2.7 | 3.86 | 30.2 ± 5.2 | 3980 ± 448 | 247 ± 36 | – | – | – | – | – | – | – | –
CCc1nc2ccc(C(c3ccc(Cl)cc3)c3ccc(Cl)cc3)cc2n1C1CCN(S(=O)(=O)C(F)(F)F)CC1 [Example 328] | 39.1 ± 1.95 | > 14 | 99.3 ± 13.3 | 2640 ± 337 | 1600 ± 109 | – | – | – | – | – | – | – | –
O=C(O)c1cc(F)cc(CN2CCC(n3c(C4CC4)nc4ccc(C(c5ccc(Cl)cc5)c5ccc(Cl)cc5)cc43)CC2)c1 [Example 89] | – | 7.9 | – | – | – | – | – | 92.6 ± 20.4 | 129 ± 33.2 | 7190 ± 488 | 4430 ± 227 | – | –
O=C(O)c1ccc(CN2CCC(n3c(C4CC4)nc4ccc(C(c5ccc(Cl)cc5)c5ccc(Cl)cc5)cc43)CC2)o1 [Example 129] | – | > 10 | – | – | – | – | – | – | – | 1370 ± 749 | 84.6 ± 62.9 | BLOQ ± NA | BLOQ ± NA
O=C(O)c1ccc(F)c(CN2CCC(n3c(C4CC4)nc4ccc(C(c5ccc(Cl)cc5)c5ccc(Cl)cc5)cc43)CC2)c1 [Example 92] | – | 5.19 | – | – | – | – | – | 72.4 ± 11.1 | 89.2 ± 27.7 | 11400 ± 2020 | 5190 ± 277 | – | –
O=C(O)c1cccc(CN2CCC(n3c(C4CC4)nc4ccc(C(c5ccc(Cl)cc5)c5ccc(Cl)cc5)cc43)CC2)c1 [Example 148] | – | 4.93 | – | – | – | – | – | 334 ± 108 | 417 ± 50 | 13500 ± 273 | 7750 ± 3100 | – | –
O=C(O)c1cccc(CN2CCC(n3c(C4CC4)nc4ccc(C(c5ccc(Cl)cc5)c5ccc(Cl)cc5)cc43)CC2)n1 [Example 125] | – | 9.9 | – | – | – | – | – | – | – | 4490 ± 1010 | 390 ± 157 | BLOQ ± NA | BLOQ ± NA
O=C(O)c1ccc(CN2CCC(n3c(C4CC4)nc4ccc(C(c5ccc(Cl)cc5)c5ccc(Cl)cc5)cc43)CC2)nc1 [Example 124] | – | > 10 | – | – | – | – | – | – | – | 2020 ± 555 | 297 ± 107 | BLOQ ± NA | BLOQ ± NA

More lines, main results first:

concentration at 1 h ([1]; dose 20 mg/kg oral) [ng/mL] | EC50 [2] [µM] | concentration at 4 h [3, 4] [ng/mL] | concentration at 1 h [3, 5] [ng/mL] | concentration at 4 h [3, 5] [ng/mL] | Brain Mean Conc. ± Std. Dev ([1]; dose 20 mg/kg oral) | Brain Mean Conc. ± Std. Dev ([3]; dose 20 mg/kg oral) | SMILES | concentration at 1 h ([1]; dose 30 mg/kg oral) [ng/mL] | concentration at 4 h [3, 6] [ng/mL] | concentration at 1 h [3, 7] [ng/mL] | concentration at 4 h [3, 7] [ng/mL] | Brain Mean Conc. ± Std. Dev ([1]; dose 30 mg/kg oral) | Brain Mean Conc. ± Std. Dev ([3]; dose 30 mg/kg oral)
122 ± 18.1 | > 10 | 167 ± 9.4 | 2900 ± 245 | 1610 ± 207 | – | – | COc1ccc(C(c2ccc(OC)cc2)c2ccc3nc(C4CCC4)n(C4CCN(S(=O)(=O)C(F)(F)F)CC4)c3c2)cc1 [Example 320] | – | – | – | – | – | –
33.8 ± 5 | 5.4 | 48.4 ± 0.4 | 2870 ± 441 | 785 ± 191 | – | – | CCc1nc2ccc(C(c3ccc(Cl)cc3)c3ccc(Cl)cc3)cc2n1CC1CCN(S(=O)(=O)C(F)(F)F)CC1 [Example 315] | – | – | – | – | – | –
– | 5.69 | – | 789 | 62.1 ± 20 | BLOQ ± NA | BLOQ ± NA | O=C(O)c1cccc(S(=O)(=O)N2CCC(n3c(C4CC4)nc4ccc(C(c5ccc(Cl)cc5)c5ccc(Cl)cc5)cc43)CC2)c1 [Example 242] | – | – | – | – | – | –
– | 3.3 | – | 160 ± 69.7 | 33.8 ± 11.2 | BLOQ ± NA | BLOQ ± NA | O=C(O)c1csc(S(=O)(=O)N2CCC(n3c(C4CC4)nc4ccc(C(c5ccc(Cl)cc5)c5ccc(Cl)cc5)cc43)CC2)c1 [Example 221] | – | – | – | – | – | –
– | > 10 | – | 1420 ± 489 | 436 ± 83 | BLOQ ± NA | BLOQ ± NA | O=S(=O)(c1cccc(O)c1)N1CCC(n2c(C3CC3)nc3ccc(C(c4ccc(Cl)cc4)c4ccc(Cl)cc4)cc32)CC1 [Example 259] | – | – | – | – | – | –
57.8 ± 14.8 | > 10 | 69.4 ± 4.4 | 5880 ± 1290 | 2130 ± 245 | – | – | O=S(=O)(N1CCC(n2c(C3CCC3)nc3ccc(C(c4ccc(Cl)cc4)c4ccc(Cl)cc4)cc32)CC1)C(F)(F)F [Example 318] | – | – | – | – | – | –
362 ± 36.9 | > 10 | 292 ± 61 | 1550 ± 65.7 | 947 ± 191 | – | – | CCc1nc2ccc(C(c3ccc(Cl)cc3)c3nccs3)cc2n1C1CCN(S(=O)(=O)C(F)(F)F)CC1 (stereo not drawn) [Example 400] | – | – | – | – | – | –
53.3 ± 14 | > 10 | 104 ± 19 | 3940 ± 480 | 2260 ± 822 | – | – | O=S(=O)(N1CCC(n2c(C3CC3)nc3ccc(C(c4ccc(Cl)cc4)c4ccc(Cl)cc4)cc32)CC1)C(F)(F)F [Example 335] | – | – | – | – | – | –
– | 8.86 | – | – | – | – | – | O=C(O)c1ccc(S(=O)(=O)N2CCC(n3c(C4CC4)nc4ccc(C(c5ccc(Cl)cc5)c5ccc(Cl)cc5)cc43)CC2)o1 [Example 232] | – | – | 81.9 ± 22.7 | 7.11 ± 6.55 | BLOQ ± NA | BLOQ ± NA
– | 2.61 | – | 227 ± 67.2 | 27.7 ± 13.1 | BLOQ ± NA | BLOQ ± NA | O=C(O)c1ccc(S(=O)(=O)N2CCC(n3c(C4CC4)nc4ccc(C(c5ccc(Cl)cc5)c5ccc(Cl)cc5)cc43)CC2)cc1 [Example 276] | – | – | – | – | – | –
